How the values were obtained:
Settings in all cases: Compound concentration 1000.0 nM
[1] = test system: Receptor-type tyrosine-protein kinase FLT3 (Homo sapiens), P36888 [N841I]
[2] = test system: Fibroblast growth factor receptor 3 (Homo sapiens), P22607 [G697C]
[3] = target: Fibroblast growth factor receptor 4 (Homo sapiens) (UniProt P22455)
[4] = target: Proto-oncogene tyrosine-protein kinase Src (Homo sapiens) (UniProt P12931)
[5] = target: Focal adhesion kinase 1 (Homo sapiens) (UniProt Q05397)
[6] = target: Dual specificity mitogen-activated protein kinase kinase 6 (Homo sapiens) (UniProt P52564)
[7] = target: Fibroblast growth factor receptor 3 (Homo sapiens) (UniProt P22607)
[8] = target: Calcium/calmodulin-dependent protein kinase type II subunit delta (Homo sapiens) (UniProt Q13557)
[9] = target: Mitogen-activated protein kinase kinase kinase 12 (Homo sapiens) (UniProt Q12852)
[10] = target: Serine/threonine-protein kinase MRCK gamma (Homo sapiens) (UniProt Q6DT37)
[11] = target: Tyrosine-protein kinase Fgr (Homo sapiens) (UniProt P09769)
[12] = target: Mitogen-activated protein kinase kinase kinase kinase 5 (Homo sapiens) (UniProt Q9Y4K4)
[13] = target: Mitogen-activated protein kinase kinase kinase 4 (Homo sapiens) (UniProt Q9Y6R4)
Sequence of Mitogen-activated protein kinase kinase kinase 4 (Homo sapiens) (Q9Y6R4 whole entry): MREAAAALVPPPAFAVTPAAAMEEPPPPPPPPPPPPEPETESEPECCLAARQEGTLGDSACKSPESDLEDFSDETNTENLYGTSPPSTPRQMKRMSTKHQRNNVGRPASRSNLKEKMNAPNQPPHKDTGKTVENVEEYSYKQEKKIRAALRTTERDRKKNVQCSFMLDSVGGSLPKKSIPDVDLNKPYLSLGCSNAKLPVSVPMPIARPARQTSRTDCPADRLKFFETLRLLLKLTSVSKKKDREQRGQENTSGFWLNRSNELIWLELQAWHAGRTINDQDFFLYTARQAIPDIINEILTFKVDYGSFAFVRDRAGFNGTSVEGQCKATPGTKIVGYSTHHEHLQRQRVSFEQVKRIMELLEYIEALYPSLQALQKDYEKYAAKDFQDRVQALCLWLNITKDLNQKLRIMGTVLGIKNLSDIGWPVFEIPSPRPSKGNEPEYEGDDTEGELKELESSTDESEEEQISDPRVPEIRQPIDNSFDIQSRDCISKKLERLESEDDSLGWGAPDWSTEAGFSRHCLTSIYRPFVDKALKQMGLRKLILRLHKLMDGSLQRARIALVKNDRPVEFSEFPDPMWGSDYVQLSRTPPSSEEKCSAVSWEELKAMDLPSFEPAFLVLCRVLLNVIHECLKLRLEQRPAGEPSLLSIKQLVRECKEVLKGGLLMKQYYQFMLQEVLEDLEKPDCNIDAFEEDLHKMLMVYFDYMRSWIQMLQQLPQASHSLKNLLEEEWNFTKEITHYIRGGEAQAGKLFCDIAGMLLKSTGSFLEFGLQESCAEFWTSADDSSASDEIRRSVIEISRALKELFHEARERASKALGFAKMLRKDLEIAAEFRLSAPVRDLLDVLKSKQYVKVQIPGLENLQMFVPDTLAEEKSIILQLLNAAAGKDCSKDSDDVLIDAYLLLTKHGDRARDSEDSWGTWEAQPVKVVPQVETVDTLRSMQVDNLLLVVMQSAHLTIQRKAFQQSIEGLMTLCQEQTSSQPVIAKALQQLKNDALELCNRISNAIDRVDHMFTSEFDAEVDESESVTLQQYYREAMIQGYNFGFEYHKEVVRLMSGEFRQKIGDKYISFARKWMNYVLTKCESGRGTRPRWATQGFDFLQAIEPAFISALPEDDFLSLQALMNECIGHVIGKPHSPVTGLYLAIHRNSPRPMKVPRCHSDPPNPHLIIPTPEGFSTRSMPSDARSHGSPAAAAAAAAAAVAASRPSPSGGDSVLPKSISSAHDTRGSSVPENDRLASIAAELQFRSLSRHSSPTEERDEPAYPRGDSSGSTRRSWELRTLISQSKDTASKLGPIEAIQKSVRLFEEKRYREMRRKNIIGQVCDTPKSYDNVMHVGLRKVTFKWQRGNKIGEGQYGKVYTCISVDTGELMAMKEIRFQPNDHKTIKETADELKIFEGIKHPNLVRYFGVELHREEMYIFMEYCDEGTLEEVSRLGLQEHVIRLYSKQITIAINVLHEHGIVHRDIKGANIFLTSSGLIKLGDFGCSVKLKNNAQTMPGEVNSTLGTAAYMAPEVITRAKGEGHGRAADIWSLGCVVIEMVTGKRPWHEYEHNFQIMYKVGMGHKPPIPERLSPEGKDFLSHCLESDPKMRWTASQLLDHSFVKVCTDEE

[14] = target: Calcium/calmodulin-dependent protein kinase type 1B (Homo sapiens) (UniProt Q6P2M8)
[15] = target: Serine/threonine-protein kinase SBK1 (Homo sapiens) (UniProt Q52WX2)
[16] = target: Tyrosine-protein kinase ZAP-70 (Homo sapiens) (UniProt P43403)
[17] = target: Tyrosine-protein kinase Srms (Homo sapiens) (UniProt Q9H3Y6)
[18] = target: Cyclin-dependent kinase 16 (Homo sapiens) (UniProt Q00536)
[19] = target: Serine/threonine-protein kinase SIK1 (Homo sapiens) (UniProt P57059)
Sequence of Serine/threonine-protein kinase SIK1 (Homo sapiens) (P57059 whole entry): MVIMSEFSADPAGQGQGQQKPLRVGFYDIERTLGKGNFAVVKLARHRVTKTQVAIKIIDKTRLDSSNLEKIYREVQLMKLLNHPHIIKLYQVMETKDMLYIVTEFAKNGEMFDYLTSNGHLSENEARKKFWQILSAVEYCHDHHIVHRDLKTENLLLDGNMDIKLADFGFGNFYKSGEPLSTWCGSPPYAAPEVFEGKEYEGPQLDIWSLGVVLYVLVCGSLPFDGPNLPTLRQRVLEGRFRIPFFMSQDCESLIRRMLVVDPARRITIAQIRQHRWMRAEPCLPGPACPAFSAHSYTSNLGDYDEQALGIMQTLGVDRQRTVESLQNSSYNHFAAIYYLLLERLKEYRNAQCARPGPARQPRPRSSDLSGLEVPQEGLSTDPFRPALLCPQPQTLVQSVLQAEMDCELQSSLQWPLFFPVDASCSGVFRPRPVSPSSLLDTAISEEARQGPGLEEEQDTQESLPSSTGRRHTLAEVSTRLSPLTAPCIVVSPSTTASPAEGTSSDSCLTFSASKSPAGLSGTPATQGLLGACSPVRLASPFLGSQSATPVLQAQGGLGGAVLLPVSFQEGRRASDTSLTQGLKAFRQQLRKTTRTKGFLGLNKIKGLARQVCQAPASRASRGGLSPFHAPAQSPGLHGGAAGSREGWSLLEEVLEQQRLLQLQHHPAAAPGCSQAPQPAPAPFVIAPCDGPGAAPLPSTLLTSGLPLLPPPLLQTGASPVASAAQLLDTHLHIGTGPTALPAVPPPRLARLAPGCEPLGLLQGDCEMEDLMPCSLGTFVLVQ

[20] = target: Tyrosine-protein kinase Blk (Homo sapiens) (UniProt P51451)
[21] = target: Mitotic checkpoint serine/threonine-protein kinase BUB1 (Homo sapiens) (UniProt O43683)
Sequence of Mitotic checkpoint serine/threonine-protein kinase BUB1 (Homo sapiens) (O43683 whole entry, looked up): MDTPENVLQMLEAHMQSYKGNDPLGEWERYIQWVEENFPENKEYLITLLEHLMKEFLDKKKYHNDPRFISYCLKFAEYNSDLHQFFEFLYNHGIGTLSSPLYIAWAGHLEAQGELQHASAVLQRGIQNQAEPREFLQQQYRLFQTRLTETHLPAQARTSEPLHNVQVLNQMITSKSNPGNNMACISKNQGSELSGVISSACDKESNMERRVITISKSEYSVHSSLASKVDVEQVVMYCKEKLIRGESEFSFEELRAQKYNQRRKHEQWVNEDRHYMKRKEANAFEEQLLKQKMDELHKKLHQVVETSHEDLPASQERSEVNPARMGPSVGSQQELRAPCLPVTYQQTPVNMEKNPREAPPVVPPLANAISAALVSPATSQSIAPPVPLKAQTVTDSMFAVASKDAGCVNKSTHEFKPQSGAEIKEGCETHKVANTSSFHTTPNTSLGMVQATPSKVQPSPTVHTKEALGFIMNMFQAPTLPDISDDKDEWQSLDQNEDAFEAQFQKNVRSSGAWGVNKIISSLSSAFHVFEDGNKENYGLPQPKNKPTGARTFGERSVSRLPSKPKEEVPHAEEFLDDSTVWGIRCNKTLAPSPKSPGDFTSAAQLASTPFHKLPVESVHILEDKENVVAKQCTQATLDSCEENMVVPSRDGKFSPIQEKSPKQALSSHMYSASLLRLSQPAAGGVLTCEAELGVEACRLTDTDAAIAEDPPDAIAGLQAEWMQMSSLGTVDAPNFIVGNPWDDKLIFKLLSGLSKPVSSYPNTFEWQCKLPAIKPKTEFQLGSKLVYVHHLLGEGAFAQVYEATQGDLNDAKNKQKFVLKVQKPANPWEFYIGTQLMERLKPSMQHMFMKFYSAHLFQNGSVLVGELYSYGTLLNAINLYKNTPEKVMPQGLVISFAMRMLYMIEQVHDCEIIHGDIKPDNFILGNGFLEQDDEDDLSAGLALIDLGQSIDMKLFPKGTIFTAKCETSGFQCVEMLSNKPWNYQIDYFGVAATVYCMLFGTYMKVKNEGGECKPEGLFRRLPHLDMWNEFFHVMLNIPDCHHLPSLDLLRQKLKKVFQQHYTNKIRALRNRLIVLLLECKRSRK

[22] = target: Myosin light chain kinase, smooth muscle (Homo sapiens) (UniProt Q15746)
[23] = target: Mitogen-activated protein kinase 11 (Homo sapiens) (UniProt Q15759)
[24] = target: Serine/threonine-protein kinase Nek5 (Homo sapiens) (UniProt Q6P3R8)
[25] = target: Serine/threonine-protein kinase NIM1 (Homo sapiens) (UniProt Q8IY84)
[26] = test system: Receptor-type tyrosine-protein kinase FLT3 (Homo sapiens), P36888 [D835Y]
[27] = target: Tyrosine-protein kinase JAK2 (Homo sapiens) (UniProt O60674)
[28] = target: Calcium/calmodulin-dependent protein kinase type IV (Homo sapiens) (UniProt Q16566)
Sequence of Calcium/calmodulin-dependent protein kinase type IV (Homo sapiens) (Q16566 whole entry): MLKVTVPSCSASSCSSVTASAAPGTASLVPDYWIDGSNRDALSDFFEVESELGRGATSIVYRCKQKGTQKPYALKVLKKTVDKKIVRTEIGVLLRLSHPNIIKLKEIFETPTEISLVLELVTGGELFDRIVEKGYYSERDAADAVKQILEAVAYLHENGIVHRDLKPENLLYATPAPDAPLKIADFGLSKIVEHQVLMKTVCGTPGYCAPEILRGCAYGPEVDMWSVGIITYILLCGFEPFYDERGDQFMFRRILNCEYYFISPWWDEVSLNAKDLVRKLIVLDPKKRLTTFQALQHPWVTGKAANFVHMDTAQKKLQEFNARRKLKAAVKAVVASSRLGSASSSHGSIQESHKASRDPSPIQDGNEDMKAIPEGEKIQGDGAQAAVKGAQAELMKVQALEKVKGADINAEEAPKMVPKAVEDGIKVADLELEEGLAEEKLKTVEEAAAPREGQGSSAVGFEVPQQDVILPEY

[29] = target: Activin receptor type-1 (Homo sapiens) (UniProt Q04771)
[30] = target: Dual specificity tyrosine-phosphorylation-regulated kinase 1A (Homo sapiens) (UniProt Q13627)
[31] = target: Ephrin type-B receptor 4 (Homo sapiens) (UniProt P54760)
[32] = target: Membrane-associated tyrosine- and threonine-specific cdc2-inhibitory kinase (Homo sapiens) (UniProt Q99640)
[33] = target: Serine/threonine-protein kinase ULK2 (Homo sapiens) (UniProt Q8IYT8)
[34] = target: RAC-alpha serine/threonine-protein kinase (Homo sapiens) (UniProt P31749)
Sequence of RAC-alpha serine/threonine-protein kinase (Homo sapiens) (P31749 whole entry): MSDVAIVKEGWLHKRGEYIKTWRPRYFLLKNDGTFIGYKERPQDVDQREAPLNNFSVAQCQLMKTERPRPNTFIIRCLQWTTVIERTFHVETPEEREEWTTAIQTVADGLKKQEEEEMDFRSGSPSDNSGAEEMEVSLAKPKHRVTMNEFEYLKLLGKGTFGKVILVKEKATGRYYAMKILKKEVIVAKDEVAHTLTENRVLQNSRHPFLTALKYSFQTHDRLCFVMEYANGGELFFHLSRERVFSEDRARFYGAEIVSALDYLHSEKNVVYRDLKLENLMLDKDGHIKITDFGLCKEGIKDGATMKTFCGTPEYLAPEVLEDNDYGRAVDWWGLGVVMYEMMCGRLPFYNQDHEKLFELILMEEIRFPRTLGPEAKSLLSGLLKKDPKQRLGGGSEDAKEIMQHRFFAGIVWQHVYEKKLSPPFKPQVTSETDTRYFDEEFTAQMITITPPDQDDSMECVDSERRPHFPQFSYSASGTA

[35] = target: Mitogen-activated protein kinase 13 (Homo sapiens) (UniProt O15264)
[36] = target: Receptor-interacting serine/threonine-protein kinase 1 (Homo sapiens) (UniProt Q13546)
[37] = target: Serine/threonine-protein kinase B-raf (Homo sapiens) (UniProt P15056)
[38] = target: Tyrosine-protein kinase SYK (Homo sapiens) (UniProt P43405)
[39] = target: Serine/threonine-protein kinase 4 (Homo sapiens) (UniProt Q13043)
[40] = target: Serine/threonine-protein kinase TNNI3K (Homo sapiens) (UniProt Q59H18)
[41] = target: Serine/threonine-protein kinase PLK3 (Homo sapiens) (UniProt Q9H4B4)
[42] = target: Tyrosine-protein kinase receptor UFO (Homo sapiens) (UniProt P30530)
[43] = target: Serine/threonine-protein kinase Chk1 (Homo sapiens) (UniProt O14757)
Sequence of Serine/threonine-protein kinase Chk1 (Homo sapiens) (O14757 whole entry): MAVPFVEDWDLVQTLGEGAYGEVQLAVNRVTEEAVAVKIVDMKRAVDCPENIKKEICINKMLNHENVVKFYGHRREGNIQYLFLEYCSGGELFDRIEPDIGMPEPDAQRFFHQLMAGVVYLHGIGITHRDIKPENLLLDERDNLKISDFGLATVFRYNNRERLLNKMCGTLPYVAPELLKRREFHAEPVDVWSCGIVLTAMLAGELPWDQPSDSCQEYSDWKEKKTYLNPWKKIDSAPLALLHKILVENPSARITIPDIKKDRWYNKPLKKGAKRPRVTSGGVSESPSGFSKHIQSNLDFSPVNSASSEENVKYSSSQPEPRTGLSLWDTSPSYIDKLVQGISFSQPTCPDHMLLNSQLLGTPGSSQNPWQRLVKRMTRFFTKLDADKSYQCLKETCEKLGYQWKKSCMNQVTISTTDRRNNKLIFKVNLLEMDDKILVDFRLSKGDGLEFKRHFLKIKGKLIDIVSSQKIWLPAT

[44] = target: Interleukin-1 receptor-associated kinase 1 (Homo sapiens) (UniProt P51617)
[45] = target: Casein kinase I isoform delta (Homo sapiens) (UniProt P48730)

Measured: residual activity

CSc1cccnc1N1CCN(Cc2nc3ccccc3[nH]2)CC1 [A-769]
inactive: [1] 100% | [2] 100% | [3] 89% | [4] 100% | [5] 100% | [6] 100% | [7] 100% | [8] 100% | [9] 74% | [10] 100% | [11] 100% | [12] 100% | [13] 100% | [14] 100% | [15] 99% | [16] 99% | [17] 100% | [18] 81% | [19] 100% | [20] 96% | [21] 90% | [22] 94% | [23] 100% | [24] 100% | [25] 84% | [26] 100% | [27] 65% | [28] 100% | [29] 100% | [30] 79% | [31] 100% | [32] 100% | [33] 94% | [34] 100% | [35] 100% | [36] 100% | [37] 89% | [38] 100% | [39] 85% | [40] 100% | [41] 80% | [42] 100% | [43] 94% | [44] 73% | [45] 100%

c1ccc(N2CCN(Cc3nc4ccccc4[nH]3)CC2)nc1 [ABT-724]
active: [14] 0%
inactive: [1] 100% | [2] 100% | [3] 93% | [4] 93% | [5] 86% | [6] 100% | [7] 96% | [8] 91% | [9] 97% | [10] 100% | [11] 100% | [12] 100% | [13] 100% | [15] 100% | [16] 100% | [17] 94% | [18] 100% | [19] 100% | [20] 100% | [21] 100% | [22] 80% | [23] 88% | [24] 100% | [25] 100% | [26] 100% | [27] 100% | [28] 88% | [29] 100% | [30] 100% | [31] 100% | [32] 100% | [33] 100% | [34] 90% | [35] 100% | [36] 100% | [37] 100% | [38] 100% | [39] 100% | [40] 100% | [41] 100% | [42] 100% | [43] 100% | [44] 100% | [45] 95%

Source: ChEMBL document CHEMBL4507260 (2021)
